Data as given in US20160221992A1, “DENDRITIC COMPOUNDS INCLUDING A CHELATING, FLUOROCHROME OR RECOGNITION AGENT, COMPOSITIONS INCLUDING SAME AND USES THEREOF” (UNIVERSITE DE STRASBOURG, priority 2013, published 2016).
Each block holds one compound with its values, some of them ahead of it.

Experiments:
[1] = tested on: murine melanoma (B16FO line); experiment: Quantitative study of tumoral fixation and biodistribution of the radiolabeled compound (ex-vivo gamma counting after IV injection); format: in vivo, C57B16 mice; details: for % Elimination/Al / Ratio (g)/Al TU/kidneys / Ratio (g)/Al Tu/Liver / Ratio (g)/Al Tu/Lungs / Ratio (g)/Al Tu/blood / Tumor (g/Al %): Indium-111-radiolabeled, IV
Experimental: C57B16 mice bearing xenografts of murine melanoma (B16FO line) obtained by subcutaneous injection of 300 000 cells suspended in 100 μl of RPMI culture medium are injected subcutaneously in the back. The experiment is performed when the tumors are palpable. i.e. about 10 days […]. All the experiments (tumoral graft, injection and imaging) are carried out under isoflurane/oxygen (2.5%/2.5%) gas anesthesia.
Injection of 50 to 100 microliters of the radiolabeled solution, with a maximum activity of 20 MBQ, by direct intravenous injection (caudal vein). The activity of the empty syringe after injection+compress is also measured for calculating the actual activity injected (actual Ac injected=Ac normalized full syringe—normalized activity (empty syringe and compress). Normalization consists in calculating the theoretical activity at one and the same time chosen as reference (for example the time of injection). The measurements are performed on a regularly calibrated activity meter for medical use (Medisystem©).
(§1) Scintigraphic imaging is carried out using a dedicated small animal micro-5 imager SPECT-CT (BIOSCAN™). A planar scintigraphic image is obtained immediately after injection to verify absence of intracaudal stasis. If there is stasis, the mouse will be sacrificed at late times (24 or 48 h). Static scintigraphic images may be recorded at 2 h, 4 h, 24 h and 48 h (Imager micro-SPECT-CT BIOSCAN©).
This is done ex-vivo by gamma counting of the various samples, using a gamma well counter for medical use, regularly calibrated for the isotopes used (Tc-99m and In-111). The animals are euthanized according to the protocols allowed by the animal ethics committee at 2 h, 4 h, 24 h or 48 h. The main organs are removed (brain, spleen, kidneys, lungs, heart, alimentary canal, liver) as well as a fragment of skin, muscle, bone and a blood sample and the whole tumor. Each sample is weighed and its gamma activity is counted in a sample-changing well counter for dedicated medical use, calibrated for the radioelements used. The animal's carcass is also weighed after removing the tail; these samples are incinerated and their gamma activity is also measured. The gamma activity of the samples containing all the collected urine and the feces is also measured. The activity of each sample is normalized (relative to the time of injection), and the ratio of the activity of each sample is calculated relative to the total activity injected (=the sum of all of the activities measured except that of the tail), expressed in % per gram of tissue, for calculating the ratio of the activity present in the tumor relative to the main organs (liver, kidneys, lungs and blood). The percentage of the activity eliminated is calculated.
The mean values of all of the data for all of the mice whose data are exploitable are calculated, as well as after eliminating the animals with urinary excretion that is too quick (>50% at 2 h or 75% at 4 h, as well as the mice with tumors >2 g, as the existence of necrosis may distort the calculation of the ratio of fixation in the tumor).
The biodistribution data of the various dendrimer compounds coupled to the IFC01102 ligand (also called amine R) and to a chelating agent are compared with those of the ligand alone coupled to the DOTA chelating agent (compound AP045) and radiolabeled with the same radioelement. 8.5 Results with Compound APAG9-1 (Radiolabeled with Tc99m) The radiochemical purity is above 95%, according to the chromatographic profile obtained as described above (example 5). 12 animals were injected. The average activity injected is 3.5±2.4 MBq. 2 animals were euthanized at 2 h, 4 at 24 h and 48 h post-injection. Examples of planar image immediately post-injection and 2 hours post-injection are illustrated in FIG. 3.

[2] = Lymphatic drainage after intradermal injection in the hind paws (sentinel lymph node characterization, scintigraphy/SPECT); format: in vivo, mouse; details: SPECT 3 h after intradermal injection, indium-111, 10 MBq
Experimental: as §1, with “performed” for “carried out”, “stasis.” for “stasis. If there is stasis, the mouse will be sacrificed at late times (24 or 48 h).”
Intradermal injection of 1 to 20 microliters of a suspension of radiolabeled dendrimers with a hypodermic syringe in the pad of the hindpaw of a nude mouse. A whole-body planar scintigraphic image of the mouse is obtained 5 minutes after injection to verify absence of passage of the compound through the blood. Acquisition of tomographic images (SPECT) every 30 minutes to monitor the lymphatic drainage of the compound and determine the time of disappearance of the signal in the popliteal lymph node. 9.3.a Injection of Compound X1 Labeled with Tc99m (Generation 2 Molecule)

[3] = 48 post-IV, first series (all animals)
[4] = 48 post-IV, second series (two mice with too quick urinary excretion eliminated)
[5] = 2 h post-iv, first series (all animals)
[6] = 2 h post-iv, second series (two mice with too quick urinary excretion eliminated)
[7] = 4 h post-IV, first series (all animals)
[8] = 4 h post-IV, second series (two mice with too quick urinary excretion eliminated)
[9] = 24 h post-IV, first series (all animals)
[10] = 24 h post-IV, second series (two mice with too quick urinary excretion eliminated)

Structure (SMILES): CCN(CC)CCNC(=O)c1cnc2cc(NC(=O)NCCOCCOCCNC(=O)CCOCCOCCOCCOCCNC(=O)CCN(CCC(=O)NCCOCCOCCOCCOCCC(=O)NCCOCCOCCNC(=O)Nc3ccc4nc(C(=O)NCCN(CC)CC)cnc4c3)Cc3cn(CCOCCOCCOCCOCCOCCOCCOCCNC(=O)CN4CCN(CC(=O)O)CCN(CC(=O)O)CCN(CC(=O)O)CC4)nn3)ccc2n1 [AP071]
- % Elimination/Al [1, 3]: 8.5E+01%
- Ratio (g)/Al TU/kidneys [1, 3]: 3.15E−01
- Ratio (g)/Al Tu/Liver [1, 3]: 4.79E−01
- Ratio (g)/Al Tu/Lungs [1, 3]: 2.85E+00
- Ratio (g)/Al Tu/blood [1, 3]: 1.17E+01
- Tumor (g/Al %) [1, 3]: 3.40E−01 g/Al %
- % Elimination/Al [1, 4]: 8.5E+01%
- Ratio (g)/Al TU/kidneys [1, 4]: 3.15E−01
- Ratio (g)/Al Tu/Liver [1, 4]: 4.79E−01
- Ratio (g)/Al Tu/Lungs [1, 4]: 2.86E+00
- Ratio (g)/Al Tu/blood [1, 4]: 1.17E+01
- Tumor (g/Al %) [1, 4]: 3.40E−01 g/Al %
- % Elimination/Al [1, 5]: 6.0E+01%
- Ratio (g)/Al TU/kidneys [1, 5]: 2.41E−02
- Ratio (g)/Al Tu/Liver [1, 5]: 1.38E−01
- Ratio (g)/Al Tu/Lungs [1, 5]: 2.43E−01
- Ratio (g)/Al Tu/blood [1, 5]: 8.69E−01
- Tumor (g/Al %) [1, 5]: 4.42E+00 g/Al %
- % Elimination/Al [1, 6]: 5.1E+01%
- Ratio (g)/Al TU/kidneys [1, 6]: 2.25E−01
- Ratio (g)/Al Tu/Liver [1, 6]: 4.89E−01
- Ratio (g)/Al Tu/Lungs [1, 6]: 9.54E−01
- Ratio (g)/Al Tu/blood [1, 6]: 2.73E+00
- Tumor (g/Al %) [1, 6]: 6.57E+00 g/Al %
- tumoral uptake (in words) ([1]; 4 hours after IV injection, Indium-111): very high
- % Elimination/Al [1, 7]: 7.3E+01%
- Ratio (g)/Al TU/kidneys [1, 7]: 1.12E+00
- Ratio (g)/Al Tu/Liver [1, 7]: 2.09E+00
- Ratio (g)/Al Tu/Lungs [1, 7]: 6.20E+00
- Ratio (g)/Al Tu/blood [1, 7]: 3.92E+01
- Tumor (g/Al %) [1, 7]: 1.62E+01 g/Al %
- % Elimination/Al [1, 8]: 6.9E+01%
- Ratio (g)/Al TU/kidneys [1, 8]: 1.39E+00
- Ratio (g)/Al Tu/Liver [1, 8]: 2.80E+00
- Ratio (g)/Al Tu/Lungs [1, 8]: 8.36E+00
- Ratio (g)/Al Tu/blood [1, 8]: 7.20E+01
- Tumor (g/Al %) [1, 8]: 2.25E+01 g/Al %
- % Elimination/Al [1, 9]: 8.5E+01%
- Ratio (g)/Al TU/kidneys [1, 9]: 4.61E−01
- Ratio (g)/Al Tu/Liver [1, 9]: 6.98E−01
- Ratio (g)/Al Tu/Lungs [1, 9]: 2.88E+00
- Ratio (g)/Al Tu/blood [1, 9]: 9.46E+00
- Tumor (g/Al %) [1, 9]: 3.07E+00 g/Al %
- % Elimination/Al [1, 10]: 8.5E+01%
- Ratio (g)/Al TU/kidneys [1, 10]: 4.61E−01
- Ratio (g)/Al Tu/Liver [1, 10]: 6.98E−01
- Ratio (g)/Al Tu/Lungs [1, 10]: 2.88E+00
- Ratio (g)/Al Tu/blood [1, 10]: 9.46E+00
- Tumor (g/Al %) [1, 10]: 3.07E+00 g/Al %
- tumoral uptake compared with the ligand alone (AP045) ([1]; APAG22-1: at two hours post-IV): far higher

- drainage in the entire lymphatic network as far as the lumbar-aortic stage [2]: clearly visible
Structure (SMILES): COCCOCCOCCOCCOc1cc(C(=O)NCCCCNC(=O)CN2CCN(CC(=O)O)CCN(CC(=O)O)CCN(CC(=O)O)CC2)cc(OCCOCCOCCOCCOC)c1OCCOCCOCCOCCOC [APAG4]
